US9938261B2, “Heterocyclic compounds and methods of use thereof” (AMBIT BIOSCIENCES CORPORATION, priority 2011, dated 2018)
Where two headings read alike, the source gives them in different places.

Molecular target: CSF1R (Homo sapiens, UniProt P07333)
Assay: HEK293 CSF1R phosphorylation MSD assay
Assay type: cell-based
Parameters: expressed in transfected cells; host or cells: HEK293
Settings: read-out: HEK293 pCSF1R M-CSF MSD:IC50
How it was run: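 HEK293 cells expressing CSF1R-FKBP were pretreated 2 h at 37° C with 9 half-log concentrations of compound (0.5% DMSO final), then stimulated 5 min with 50 ng/mL human M-CSF. Lysates captured on biotin-FK506 plates; phosphotyrosine detected by MSD electrochemiluminescence. IC50 versus DMSO, averaged from duplicate plates.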

[1] = HEK293 cells, M-CSF stimulated CSF1R phosphorylation, MSD
[2] = 2 h compound, human M-CSF 50 ng/mL for 5 min

Chain of CSF1R (P07333 20-972): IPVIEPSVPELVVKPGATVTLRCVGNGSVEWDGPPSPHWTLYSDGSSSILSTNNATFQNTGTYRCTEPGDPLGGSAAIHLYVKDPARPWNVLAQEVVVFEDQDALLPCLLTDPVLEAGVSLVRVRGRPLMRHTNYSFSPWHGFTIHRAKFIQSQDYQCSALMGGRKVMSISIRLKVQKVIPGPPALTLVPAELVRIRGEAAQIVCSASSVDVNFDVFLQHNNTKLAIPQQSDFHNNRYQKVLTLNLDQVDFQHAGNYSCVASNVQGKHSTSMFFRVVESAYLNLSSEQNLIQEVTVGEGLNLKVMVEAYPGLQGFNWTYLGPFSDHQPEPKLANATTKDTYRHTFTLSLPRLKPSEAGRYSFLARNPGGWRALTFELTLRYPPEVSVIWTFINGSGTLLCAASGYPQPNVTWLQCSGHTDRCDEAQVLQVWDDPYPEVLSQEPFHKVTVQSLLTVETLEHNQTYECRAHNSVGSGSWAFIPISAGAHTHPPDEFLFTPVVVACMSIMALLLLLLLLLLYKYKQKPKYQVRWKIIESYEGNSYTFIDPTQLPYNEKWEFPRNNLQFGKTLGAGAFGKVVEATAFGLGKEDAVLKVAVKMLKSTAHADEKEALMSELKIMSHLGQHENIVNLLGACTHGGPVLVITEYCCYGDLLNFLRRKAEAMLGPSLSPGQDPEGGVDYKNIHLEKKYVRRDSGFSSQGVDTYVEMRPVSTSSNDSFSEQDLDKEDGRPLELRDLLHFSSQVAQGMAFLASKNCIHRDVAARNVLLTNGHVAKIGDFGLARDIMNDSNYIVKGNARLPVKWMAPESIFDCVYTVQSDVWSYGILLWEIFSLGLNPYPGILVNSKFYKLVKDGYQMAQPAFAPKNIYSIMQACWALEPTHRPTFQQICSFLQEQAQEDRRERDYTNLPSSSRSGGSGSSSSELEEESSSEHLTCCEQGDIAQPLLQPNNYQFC

SMILES | IC50 [1] [nM] | IC50 [2] [nM]
O[C@@H]1CCCC[C@H]1Nc1nc2ccc(Cn3cnc4cc(N5CCOCC5)ccc43)cc2s1 [Example 209, (1R,2R)-2-((6-((5-morpholino-1H-benzo[d]imidazol-1-yl)methyl)benzo[d]thiazol-2-yl)amino)cyclohexanol] | 50 to 200 | –
COc1cc2ncn(Cc3ccc4nc(N[C@@H]5CCCCC[C@H]5O)sc4c3)c2cc1OC (racemic) [Example 50, (±)-2-((6-((5,6-dimethoxy-1H-benzo[d]imidazol-1-yl)methyl)benzo[d]thiazol-2-yl)amino)cycloheptanol] | – | ≤ 50
OC1CCN(c2ccn3c(Cc4ccc5nc(N[C@@H]6CCCC[C@H]6O)sc5c4)cnc3c2)CC1 [Example 199, 1-(3-((2-(((1R,2R)-2-hydroxycyclohexyl)amino)benzo[d]thiazol-6-yl)methyl)imidazo[1,2-a]pyridin-7-yl)piperidin-4-ol] | 200 to 500 | –
O[C@@H]1CCCC[C@H]1Nc1nc2ccc(Cc3cnc4cc(-n5ccnn5)ccn34)cc2s1 [Example 218, (1R,2R)-2-((6-((7-(1H-1,2,3-triazol-1-yl)imidazo[1,2-a]pyridin-3-yl)methyl)benzo[d]thiazol-2-yl)amino)cyclohexanol] | ≤ 50 | –
O[C@@H]1CCCC[C@H]1Nc1nc2ccc(Cc3cnc4[nH]c5ccccc5n34)cc2s1 [Example 205, (1R,2R)-2-((6-((9H-benzo[d]imidazo[1,2-a]imidazol-3-yl)methyl)benzo[d]thiazol-2-yl)amino)cyclohexanol] | > 500 | –
C=CCOc1ccn2c(Cc3ccc4nc(N[C@@H]5CCCC[C@H]5O)sc4c3)cnc2c1 [Example 217, (1R,2R)-2-((6-((7-(allyloxy)imidazo[1,2-a]pyridin-3-yl)methyl)benzo[d]thiazol-2-yl)amino)cyclohexanol] | 50 to 200 | –
OCC1(CNc2nc3ccc(Cn4cnc5cccnc54)cc3s2)CCCCC1 [Example 76, (1-(((6-((3H-imidazo[4,5-b]pyridin-3-yl)methyl)benzo[d]thiazol-2-yl)amino)methyl)cyclohexyl)methanol] | – | 50 to 200
O[C@@H]1CCCC[C@H]1Nc1nc2ccc(Cn3cnc4cccnc43)cc2o1 [Example 56, (1R,2R)-2-((6-((3H-imidazo[4,5-b]pyridin-3-yl)methyl)benzo[d]oxazol-2-yl)amino)cyclohexanol] | – | 50 to 200

Now from value to compound:

IC50 [1] [nM] | IC50 [2] [nM] | SMILES
– | ≤ 50 | O[C@@H]1Cc2ccccc2[C@H]1Nc1nc2ccc(Cn3cnc4cc(Br)cnc43)cc2o1 [Example 62, (1R,2R)-1-((6-((6-bromo-3H-imidazo[4,5-b]pyridin-3-yl)methyl)benzo[d]oxazol-2-yl)amino)-2,3-dihydro-1H-inden-2-ol]
– | ≤ 50 | O[C@@H]1CCCC[C@H]1Nc1nc2ccc(Cn3cnc4cc(Cl)cnc43)cc2s1 [Example 55, (1R,2R)-2-((6-((6-chloro-3H-imidazo[4,5-b]pyridin-3-yl)methyl)benzo[d]thiazol-2-yl)amino)cyclohexanol]
– | 50 to 200 | COc1cc2ncn(Cc3ccc4nc(N[C@@H]5CCCC[C@H]5O)sc4c3)c2cc1Br [Example 47, (1R,2R)-2-((6-((6-bromo-5-methoxy-1H-benzo[d]imidazol-1-yl)methyl)benzo[d]thiazol-2-yl)amino)cyclohexanol]
– | 50 to 200 | O[C@@H]1Cc2ccccc2[C@H]1Nc1nc2ccc(Cn3cnc4cc(Br)cnc43)cc2s1 [Example 42, (1R,2R)-1-((6-((6-bromo-3H-imidazo[4,5-b]pyridin-3-yl)methyl)benzo[d]thiazol-2-yl)amino)-2,3-dihydro-1H-inden-2-ol]
– | ≤ 50 | COc1cc2c(cc1-c1cnn(C)c1)ncn2Cc1ccc2nc(N[C@@H]3CCCC[C@H]3O)sc2c1 [Example 51, (1R,2R)-2-((6-((6-methoxy-5-(1-methyl-1H-pyrazol-4-yl)-1H-benzo[d]imidazol-1-yl)methyl)benzo[d]thiazol-2-yl)amino)cyclohexanol]
– | ≤ 50 | C#Cc1cnc2c(c1)ncn2Cc1ccc2nc(N[C@@H]3CCCC[C@H]3O)sc2c1 [Example 96, (1R,2R)-2-((6-((6-ethynyl-3H-imidazo[4,5-b]pyridin-3-yl)methyl)benzo[d]thiazol-2-yl)amino)cyclohexanol]
